Key:
SCNT eggs = test: RNA sequencing of cloned eggs at the 2-cell stage; format: cell-based, mouse; details: SCNT+RS-1 group
Experimental: To examine the effect of RS-1 treatment on SCNT eggs, RS-1 was treated to cloned eggs at the 2-cell stage during the somatic cell cloning procedure of Example 1, followed by RNA sequencing. At this time, IVF eggs were used as a negative control group. In detail, complementary DNA (cDNA) was amplified using a SMARTer ultra-low input RNA Kit for cDNA preparation (Takara, 634890) according to the manufacturer's instructions. cDNA was fragmented into about 200 bp fragments using a M220 sonicator (Covaris). The fragmented cDNAs were subjected to end-repair, and an adapter was ligated thereto. Sequencing libraries were prepared using a ScriptSeq v2 kit (Illumina) according to the manufacturer's instructions. Single-end sequencing was performed in HiSeq2500 (Illumina), and mapped to the mm9 mouse genome using STAR (v2.5.2b, https://github.com/alexdobin/STAR). Subsequently, […] (FPKM) was calculated by cuff link (v2.2.1) with default options.
To examine cloning mechanisms in the RS-1-treated SCNT egg (SCNT+RS-1) of Example 3 and the cloned egg (SCNT+Kdm4a) injected with Kdm4a mRNA during SCNT of Example 2, genes expressed in each egg were examined in the same manner as in Example 8.

SCNT eggs (F/T SCNT) [1] = test: LC3B (autophagy) and MitoTracker (mitochondria) staining of eggs; format: cell-based, mice; details: 2-cell stage; SCNT+RS-1 group; FIG. 3B
Experimental: In detail, to evaluate mitochondria distribution, SCNT-derived somatic cell cloned eggs at the 1-cell stage, 2-cell stage, and 4-cell stage were stained using MitoTracker Orange CMTMRos (Molecular Probes). Mitotracker was used at a concentration of 300 nM in an M16 culture medium supplemented with 0.3% BSA at 37° C. for 30 min in the dark. After washing, the oocytes were fixed and immunofluorescently stained with LC3B antibody and then nuclei were stained with DAPI.

[2] = tested on: surrogate female ICR mice
Description: It is reported that a success rate of cloned mouse production is generally about 1% after normal somatic cell cloning. Therefore, implantation and cloned pups formation rates of mice were examined according to treatment of SCNT eggs with RS-1. In detail, SCNT and SCNT+RS-1 oocytes at the 2-cell stage were implanted into the uterus of surrogate female ICR mice at 0.5 days after pseudopregnancy. At 19.5 days after implantation, the somatic cell cloned mice were separated from the uterus of the surrogate mother, and then the cloned mice were nurtured together with normal ICR mice born on the same day by ICR mice smeared with the smell of the surrogate mother.

SCNT eggs (F/T SCNT) [3] = test: Immunostaining of DNA damage biomarker rH2AX and Rad51; format: cell-based, mice
Experimental: In detail, IVF group, SCNT group, and SCNT+RS-1 group fixed in 4% paraformaldehyde were arrested at the 1-cell stage, 2-cell stage, and 4-cell stage, and then incubated with rH2AX (Abcam, ab22551) Rad51 (Abcam, ab63801) for 2 hr, followed by incubation in the presence of goat anti-mouse antibody diluted with PBS/0.1% BSA at 1:200, and goat anti-rabbit antibody at the same concentration for 1 hr. Thereafter, nuclei were stained with DAPI.

SCNT eggs (F/T SCNT) [4] = test: Embryonic development of SCNT eggs cultured with RS-1 (somatic cell cloning efficiency); format: cell-based, mice; details: for Number of embryos at 2-cell stage (%)+: based on the number of reconstructed oocytes; for Number of embryos at 4-cell stage (%)# / Number of blastocysts (%)# / Number of embryos at 2-cell stage block (%)#: based on the number of embryos at 2-cell stage
Experimental: 5IU PMSG and 5IU hCG hormone were administered into 8-week to 10-week-old female BDF/1 mice. 14 hr after hCG administration, cumulus cells were isolated from superovulated mice using hyaluronidase and eggs were collected. The isolated cumulus cells were refrigerated for use as somatic cell for donor cells, and the isolated eggs were stored in a KSOM culture medium in an incubator at 37° C. until experiments started. Thereafter, to carry out a somatic cell cloning experiment, nuclei were removed from matured eggs, and cumulus cells isolated in advance were directly injected as donor cells. The cumulus cells injected as donor cells were artificially activated in a culture medium containing a Rad51-stimulatory compound 1 (RS-1) for 6 hr. Thereafter, the cells were incubated in the culture medium containing RS-1 reagent for 22 hr. 22 hr later, the cells were incubated in a KSOM culture medium for 72 hr to 96 hr.
First, to examine whether RS-1 induced toxicity to egg development, IVF eggs and SCNT eggs (F/T SCNT) of Example 1 were treated with 0 μM, 1 μM, 5 μM, and 10 μM of RS-1, respectively, and an appropriate concentration was selected.

blastocysts of SCNT eggs = test: Embryonic stem cell establishment from SCNT blastocysts; format: cell-based, mouse; details: SCNT+RS-1 blastocysts on MEF feeder cells; non-RS-1 treated group 17%; FIG. 9B
Experimental: In detail, blastocysts of each group was cultured on mouse embryonic fibroblast (MEF cells) feeder cells in a mouse embryonic stem cell culture medium. 20% KSR, 0.1 mM β-mercaptoethanol, 1% non-essential amino acids, 100 units/ml penicillin, 100 μg/ml streptomycin (all products available from GIBCO), 1.5×10^3 units/ml of recombination mLif (Chemicon) were used in the culture medium. Subculture was performed using Trypsin-EDTA, and the established embryonic stem cells of somatic cell cloned mice were treated with alkaline phosphatase. The established stem cells were evaluated by histochemical staining.

SCNT eggs (F/T SCNT) [5] = test: CellROX reactive oxygen species staining of eggs at the 2-cell stage; format: cell-based, mice; details: SCNT+RS-1 group, FIG. 5A
Experimental: In detail, IVF group, SCNT+RS-1 group, and SCNT group at the 2-cell stage were incubated at 37° C. for 30 min in the dark in a culture medium supplemented with 5 μM of CellROX oxidative stress reagent for 30 min. Thereafter, each group was washed with 0.1% PVA-added D-PBS, and nuclei were stained with Hoechst (Sigma).

SCNT eggs (F/T SCNT) [6] = test: Comet assay for DNA breaks; format: cell-based, mice; details: SCNT+RS-1 group vs SCNT group; FIG. 6
Experimental: In detail, to examine DNA damage, each sample in a 1 ml tube from which a culture medium was removed was suspended in 1% agarose at 37° C., and then fixed on a pre-coated slide (Trevigen). The slide was incubated at 4° C. for 4 hr, and then immersed in a solution (Trevigen) at 4° C. for 4 hr. The slide was removed from the lysis solution, and immersed in a 1×TAE buffer at 4° C. for 30 min, followed by electrophoresis for 30 min to 40 min. The slide was immersed in 1 M ammonium acetate at room temperature for 30 min, and then fixed at […] After fixing at room temperature for 30 min, incubation was performed at 42° C. for 20 min until agarose was completely dried. Thereafter, staining was performed using a 1×SYBR green I staining solution for 5 min.

## O=C(Nc1ccc(Br)cc1)c1ccc(Br)c(S(=O)(=O)NCc2ccccc2)c1 [RS-1, 3-[(benzylamino)sulfonyl]-4-bromo-N-(4-bromophenyl)benzamide]
SCNT eggs
  number of genes significantly decreased: 414 genes
  number of genes significantly increased: 190 genes
SCNT eggs (F/T SCNT) [1]
  autophagy (LC3B) and mitochondria (mitotracker) expression pattern: intensive autophagy and mitochondria expression in the nucleus
[2]; SCNT+RS-1 oocytes at the 2-cell stage implanted into surrogate ICR mice, generally about 1% after normal cloning, FIG. 9A
  production rate of cloned mouse: 5%
[2]; mouse, in vivo
  toxicity during development: no toxicity problem
SCNT eggs (F/T SCNT) [3]; 1-cell stage, SCNT+RS-1 group vs SCNT group
  DNA damage (rH2AX and Rad51 expression): significant reduction in DNA damage
SCNT eggs (F/T SCNT) [3]; 2-cell stage block, SCNT+RS-1 group compared with other groups
  DNA damage (rH2AX and Rad51 expression): very strong DNA damage in the nucleus
SCNT eggs (F/T SCNT) [4]; RS-1 1 μM, 45 NT oocytes
  Number of embryos at 2-cell stage (%)+: 42%
SCNT eggs (F/T SCNT) [4]; RS-1 1 μM
  Number of embryos at 4-cell stage (%)#: 35%
  Number of blastocysts (%)#: 8(19) %
  Number of embryos at 2-cell stage block (%)#: 7(16.7) %
SCNT eggs (F/T SCNT) [4]; RS-1 5 μM, 46 NT oocytes
  Number of embryos at 2-cell stage (%)+: 43%
SCNT eggs (F/T SCNT) [4]; RS-1 5 μM
  Number of embryos at 4-cell stage (%)#: 36%
  Number of blastocysts (%)#: 18(41.9) %
  Number of embryos at 2-cell stage block (%)#: 7(16.3) %
SCNT eggs (F/T SCNT) [4]; RS-1 10 μM, 54 NT oocytes
  Number of embryos at 2-cell stage (%)+: 50%
SCNT eggs (F/T SCNT) [4]; RS-1 10 μM
  Number of embryos at 4-cell stage (%)#: 47%
  Number of blastocysts (%)#: 28(56) %
  Number of embryos at 2-cell stage block (%)#: 3(6) %
SCNT eggs (F/T SCNT) [4]; RS-1 10 μM, control group 31%, Table 1
  embryonic development rate: 76%
SCNT eggs (F/T SCNT) [4]; treatment with RS-1 during SCNT, FIG. 3A, control group 17%
  embryonic development rate: 59%
SCNT eggs (F/T SCNT) [4]; treatment with RS-1 during SCNT, FIG. 3A, control group 39%
  number of embryos at the 2-cell stage block: 5%
Blastocysts of SCNT eggs
  induction rate of embryonic stem cells: 45%
SCNT eggs (F/T SCNT) [5]
  reactive oxygen species in the nuclei: tended to increase
SCNT eggs (F/T SCNT) [6]
  DNA breaks (length of 3'-end, comet assay): DNA breaks were decreased
  generation of the abnormal 3'-end: significantly reduced

Source: patent US20250388858A1, “COMPOSITION FOR EMBRYONIC DEVELOPMENT, COMPRISING RAD51 ACTIVATOR, AND METHOD FOR IMPROVING EMBRYONIC DEVELOPMENT RATE USING SAME” (CHA UNIVERSITY INDUSTRY-ACADEMIC COOPERATION FOUNDATION, priority 2018, published 2025)
